Key:
in vivo [1] = conditions: phylodendrons
Experimental: (§1) Leaves obtained from the treated and untreated trees 100 days after treatment were analyzed for imidacloprid by enzyme-linked immunosorbent assay (ELISA). Briefly, leaves were dried completely and leaf blade material was separated from stems and petioles. The leaf blade material was ground to a fine powder, and about 5 grams of the material placed in a vial. A measured amount of methanol was added so that the leaf material was covered and 1 to 2 ml of methanol was beyond the leaf material, for a total of 10 to 20 ml of methanol. The vials were mixed well at least twice a day for at least 48 hours. After at least 48 hours, 10 microliters of the liquid was transferred to a smaller vial, and 1.5 ml distilled water added, and the vials were mixed well. ELISA was performed using the Envirologix™ QuantiPlate Kit for Imidacloprid (EP 006).
Five ml of a formulation of 5% imidacloprid and 95% THFA was applied to the soil of each of two 4-inch diameter pots of phylodendrons. An equal number of control plants received no insecticide treatment. All of the plants were watered and kept in the same area. On the tenth day after treatment, leaves from treated and control plants were collected and tested for imidacloprid by ELISA as described in Example 1.

in vivo [2] = conditions: aspen tree
Experimental: The tree had not previously been treated with any pesticide. About 4 to 5 ml of a formulation containing 5% imidacloprid and 95% tetrahydrofurfuryl alcohol (THFA) was poured onto the soil around the base and then watered in.
as §1

## O=[N+]([O-])NC1=NCCN1Cc1ccc(Cl)nc1 [imidacloprid]
In vivo [1]
  Time for absorption by the roots and translocation to the leaves: ≤ 10 days
  concentration at 10 days: 72000 ng/g
In vivo [2]
  concentration at 100 days: 17000 ng/g

Source: patent US8664162B2, “Method for application of pesticides and plant growth regulators and nutrients to plants” (ArborSystems, priority 2009, dated 2014)
